Experimental data taken from PubChem BioAssay (NCI).
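Assay format: 96-well plates, 48-hour exposure. GI50 marks 50% less growth. TGI is the concentration that stops growth completely.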

Columns and labels:
Assay in all cases: NCI-60 cell line screen, 48 h
EKVX NSCLC = system: EKVX NSCLC
RPMI-8226 leukemia = system: RPMI-8226 leukemia
HOP-62 NSCLC = system: HOP-62 NSCLC
DU-145 prostate = system: DU-145 prostate
U251 CNS = system: U251 CNS
HCC-2998 colon = system: HCC-2998 colon
A498 renal = system: A498 renal
OVCAR-3 ovarian = system: OVCAR-3 ovarian
HOP-92 NSCLC = system: HOP-92 NSCLC
MALME-3M melanoma = system: MALME-3M melanoma
CAKI-1 renal = system: CAKI-1 renal
COLO 205 colon = system: COLO 205 colon
UACC-62 melanoma = system: UACC-62 melanoma
NCI-H522 lung = system: NCI-H522 lung
SK-OV-3 ovarian = system: SK-OV-3 ovarian
M14 melanoma = system: M14 melanoma
MDA-MB-231 breast = system: MDA-MB-231 breast
BT-549 breast = system: BT-549 breast
HL-60(TB) leukemia = system: HL-60(TB) leukemia
SK-MEL-2 melanoma = system: SK-MEL-2 melanoma
786-0 renal = system: 786-0 renal
HT29 colon = system: HT29 colon
KM12 colon = system: KM12 colon
SK-MEL-28 melanoma = system: SK-MEL-28 melanoma
SF-295 CNS = system: SF-295 CNS
SNB-19 CNS = system: SNB-19 CNS
LOX IMVI melanoma = system: LOX IMVI melanoma
K-562 leukemia = system: K-562 leukemia
ACHN renal = system: ACHN renal
SN12C renal = system: SN12C renal
SK-MEL-5 melanoma = system: SK-MEL-5 melanoma
NCI-H226 lung = system: NCI-H226 lung
MCF7 breast = system: MCF7 breast
SW-620 colon = system: SW-620 colon
NCI/ADR-RES ovarian = system: NCI/ADR-RES ovarian
MDA-MB-468 breast = system: MDA-MB-468 breast
RXF 393 renal = system: RXF 393 renal
OVCAR-5 ovarian = system: OVCAR-5 ovarian
SF-539 CNS = system: SF-539 CNS
PC-3 prostate = system: PC-3 prostate
SR leukemia = system: SR leukemia
UACC-257 melanoma = system: UACC-257 melanoma
MOLT-4 leukemia = system: MOLT-4 leukemia
UO-31 renal = system: UO-31 renal
TK-10 renal = system: TK-10 renal
NCI-H460 lung = system: NCI-H460 lung
CCRF-CEM leukemia = system: CCRF-CEM leukemia
OVCAR-4 ovarian = system: OVCAR-4 ovarian
SF-268 CNS = system: SF-268 CNS
NCI-H23 lung = system: NCI-H23 lung
HS 578T breast = system: HS 578T breast
HCT-116 colon = system: HCT-116 colon
A549 NSCLC = system: A549 NSCLC
OVCAR-8 ovarian = system: OVCAR-8 ovarian
HCT-15 colon = system: HCT-15 colon
MDA-MB-435 = system: MDA-MB-435
T-47D breast = system: T-47D breast
IGROV1 ovarian = system: IGROV1 ovarian
SNB-75 CNS = system: SNB-75 CNS

Compound COc1ccc(-c2nc(S(=O)(=O)c3ccc(C)cc3)c(S(=O)(=O)CC(=O)N(C)Cc3ccccc3)o2)cc1 has a GI50 (EKVX NSCLC) of 11.7 µM, a TGI (EKVX NSCLC) of 25.2 µM and a GI50 (RPMI-8226 leukemia) of 4.45 µM. The TGI (RPMI-8226 leukemia) was > 100 µM, the GI50 (HOP-62 NSCLC) was 16 µM and the TGI (HOP-62 NSCLC) was 32.5 µM. The GI50 (DU-145 prostate) was 10.2 µM, the TGI (DU-145 prostate) was 21.8 µM and the GI50 (U251 CNS) was 15.4 µM. For the same compound, the TGI (U251 CNS) was 29.1 µM, the GI50 (HCC-2998 colon) was 13.3 µM and the TGI (HCC-2998 colon) was 26.1 µM. For the same compound, the GI50 (A498 renal) was 13.5 µM, the TGI (A498 renal) was 26.8 µM and the GI50 (OVCAR-3 ovarian) was 4.25 µM. The TGI (OVCAR-3 ovarian) was 16.2 µM, the GI50 (HOP-92 NSCLC) was 14 µM and the TGI (HOP-92 NSCLC) was 39.2 µM. It also gave a GI50 (MALME-3M melanoma) of 14.8 µM, a TGI (MALME-3M melanoma) of 29.6 µM and a GI50 (CAKI-1 renal) of 5.76 µM. The TGI (CAKI-1 renal) was 18.6 µM, the GI50 (COLO 205 colon) was 12.2 µM and the TGI (COLO 205 colon) was 41.7 µM. For the same compound, the GI50 (UACC-62 melanoma) was 11.7 µM, the TGI (UACC-62 melanoma) was 23.9 µM and the GI50 (NCI-H522 lung) was 2.19 µM. For the same compound, the TGI (NCI-H522 lung) was 6.94 µM, the GI50 (SK-OV-3 ovarian) was 30.5 µM and the TGI (SK-OV-3 ovarian) was > 100 µM. For the same compound, the GI50 (M14 melanoma) was 12.4 µM, the TGI (M14 melanoma) was 30.8 µM and the GI50 (MDA-MB-231 breast) was 9.27 µM. It also gave a TGI (MDA-MB-231 breast) of 21.6 µM, a GI50 (BT-549 breast) of 12.3 µM and a TGI (BT-549 breast) of 26 µM. The GI50 (HL-60(TB) leukemia) was 16.3 µM, the TGI (HL-60(TB) leukemia) was > 100 µM and the GI50 (SK-MEL-2 melanoma) was 13.8 µM. For the same compound, the TGI (SK-MEL-2 melanoma) was 27.4 µM, the GI50 (786-0 renal) was 8.89 µM and the TGI (786-0 renal) was 23 µM. It also gave a GI50 (HT29 colon) of 9.39 µM, a TGI (HT29 colon) of 30.5 µM and a GI50 (KM12 colon) of 15.8 µM. It also gave a TGI (KM12 colon) of 32.3 µM, a GI50 (SK-MEL-28 melanoma) of 14.3 µM and a TGI (SK-MEL-28 melanoma) of 27.3 µM. For the same compound, the GI50 (SF-295 CNS) was 12.7 µM, the TGI (SF-295 CNS) was 25.5 µM and the GI50 (SNB-19 CNS) was 14.4 µM. It also gave a TGI (SNB-19 CNS) of 27.5 µM, a GI50 (LOX IMVI melanoma) of 2.79 µM and a TGI (LOX IMVI melanoma) of 10.2 µM. For the same compound, the GI50 (K-562 leukemia) was 4.72 µM, the TGI (K-562 leukemia) was > 100 µM and the GI50 (ACHN renal) was 10.8 µM. It also gave a TGI (ACHN renal) of 22.7 µM, a GI50 (SN12C renal) of 10.5 µM and a TGI (SN12C renal) of 22.3 µM. For the same compound, the GI50 (SK-MEL-5 melanoma) was 14.3 µM, the TGI (SK-MEL-5 melanoma) was 27.7 µM and the GI50 (NCI-H226 lung) was 14.8 µM. For the same compound, the TGI (NCI-H226 lung) was 39.6 µM, the GI50 (MCF7 breast) was 3.89 µM and the TGI (MCF7 breast) was 16.8 µM. For the same compound, the GI50 (SW-620 colon) was 4.25 µM, the TGI (SW-620 colon) was 17.5 µM and the GI50 (NCI/ADR-RES ovarian) was 15.2 µM. It also gave a TGI (NCI/ADR-RES ovarian) of 45.2 µM, a GI50 (MDA-MB-468 breast) of 2.41 µM and a TGI (MDA-MB-468 breast) of 8 µM. It also gave a GI50 (RXF 393 renal) of 5.05 µM, a TGI (RXF 393 renal) of 16.9 µM and a GI50 (OVCAR-5 ovarian) of 12.8 µM. It also gave a TGI (OVCAR-5 ovarian) of 25.5 µM, a GI50 (SF-539 CNS) of 10.7 µM and a TGI (SF-539 CNS) of 22.5 µM. For the same compound, the GI50 (PC-3 prostate) was 12.1 µM, the TGI (PC-3 prostate) was 44.9 µM and the GI50 (SR leukemia) was 3.27 µM. For the same compound, the TGI (SR leukemia) was > 100 µM, the GI50 (UACC-257 melanoma) was 13.1 µM and the TGI (UACC-257 melanoma) was 26.3 µM. The GI50 (MOLT-4 leukemia) was 4.73 µM, the TGI (MOLT-4 leukemia) was > 100 µM and the GI50 (UO-31 renal) was 10.3 µM. For the same compound, the TGI (UO-31 renal) was 22 µM, the GI50 (TK-10 renal) was 13.2 µM and the TGI (TK-10 renal) was 26.5 µM. The GI50 (NCI-H460 lung) was 8.2 µM, the TGI (NCI-H460 lung) was 23.3 µM and the GI50 (CCRF-CEM leukemia) was 3.5 µM. The TGI (CCRF-CEM leukemia) was > 100 µM, the GI50 (OVCAR-4 ovarian) was 14.2 µM and the TGI (OVCAR-4 ovarian) was 36.7 µM. For the same compound, the GI50 (SF-268 CNS) was 12.1 µM, the TGI (SF-268 CNS) was 29.7 µM and the GI50 (NCI-H23 lung) was 12.5 µM. It also gave a TGI (NCI-H23 lung) of 25.7 µM, a GI50 (HS 578T breast) of 4.85 µM and a TGI (HS 578T breast) of 33.5 µM. The GI50 (HCT-116 colon) was 5.02 µM, the TGI (HCT-116 colon) was 19.6 µM and the GI50 (A549 NSCLC) was 14.6 µM. It also gave a TGI (A549 NSCLC) of 33.6 µM, a GI50 (OVCAR-8 ovarian) of 13.3 µM and a TGI (OVCAR-8 ovarian) of 28.9 µM. For the same compound, the GI50 (HCT-15 colon) was 6.17 µM, the TGI (HCT-15 colon) was 20.8 µM and the GI50 (MDA-MB-435) was 7.32 µM. The TGI (MDA-MB-435) was 31.1 µM, the GI50 (T-47D breast) was 6.28 µM and the TGI (T-47D breast) was 25.2 µM. For the same compound, the GI50 (IGROV1 ovarian) was 11.1 µM, the TGI (IGROV1 ovarian) was 23.5 µM and the GI50 (SNB-75 CNS) was 4.82 µM. The TGI (SNB-75 CNS) was 18.7 µM.
